Source: US12252524B2, “GIP/GLP1 co-agonist compounds” (Eli Lilly and Company, priority 2018, dated 2025)
Numbered stars: 1 amine (or outer) side, 2 acyl side, 3 side chain; on linkers, the order of the positions; unused ones are H or OH. Square brackets hold non-standard residues; d marks the D form. Side chains are listed from the residue outwards. Peptide text beside a SMILES is read from it. * marks the point of attachment. C20 diacid = O=C(O)CCCCCCCCCCCCCCCCCCC(=O)*; γGlu = O=C(O)[C@H](CCC(=O)[*:2])N[*:1]; αMeL = CC(C)C[C@](C)(N)C(=O)O; Orn = NCCC[C@H](N)C(=O)O; AEEA = NCCOCCOCC(=O)O; Aib = CC(C)(N)C(=O)O

How the values were obtained:
[1] = target: human GLP-1 receptor (GLP-1R) (Homo sapiens, UniProt P43220); experiment: cAMP pharmacological functional assay in presence of casein, hGLP-1R; type: cell-based; conditions: HEK293 cells expressing hGLP-1R, 0.1% Casein, geometric mean; read-out: hGLP1R cAMP Rel EC50 nM (SEM, n)
human GIP receptor = target: T1, human GIP receptor (Homo sapiens, UniProt P48546); experiment: [125I]-GIP binding (SPA), human GIP receptor; conditions: read-out: hGIPR Ki, nM (SEM, n)
T1 construct: expressed in transfected cells; crude membranes
T1 sequence (P48546 22-466): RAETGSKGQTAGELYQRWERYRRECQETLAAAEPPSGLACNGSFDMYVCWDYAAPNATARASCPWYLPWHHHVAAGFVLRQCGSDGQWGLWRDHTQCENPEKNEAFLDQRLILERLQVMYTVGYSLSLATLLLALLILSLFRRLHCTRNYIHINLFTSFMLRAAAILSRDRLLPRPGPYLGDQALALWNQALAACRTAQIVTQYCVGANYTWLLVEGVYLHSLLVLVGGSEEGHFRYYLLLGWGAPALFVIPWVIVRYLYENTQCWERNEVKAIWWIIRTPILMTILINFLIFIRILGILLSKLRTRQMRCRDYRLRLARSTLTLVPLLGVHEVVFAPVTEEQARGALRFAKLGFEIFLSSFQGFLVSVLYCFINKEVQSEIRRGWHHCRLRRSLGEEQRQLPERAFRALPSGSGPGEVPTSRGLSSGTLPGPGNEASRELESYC

[2] = target: T2, gastric inhibitory peptide receptor (GIPR) (Homo sapiens, UniProt P48546); experiment: cAMP pharmacological functional assay in presence of casein, hGIPR; type: cell-based; conditions: HEK293 cells expressing hGIPR, 0.1% Casein, geometric mean; read-out: hGIPR cAMP Rel EC50 nM (SEM, n)
T2 sequence (P48546 22-466): T1 sequence (P48546 22-466)

human GLP-1R [3] = target: T3, human GLP-1R (Homo sapiens, UniProt P43220); experiment: [125I]-GLP-1 binding (SPA), human GLP-1 receptor; design: expressed in transfected cells; crude membranes; conditions: read-out: hGLP1R Ki, (nM) (SEM, n)
Method in brief: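 Crude-membrane binding assay; one membrane prep included 1 mM MgCl2 and 25 units/ml DNAse I during lysis. Assay buffer at pH 7.4 contains 0.1% (w/v) bacitracin and 0.003% (w/v) TWEEN-20. Ki is reported as geometric mean.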

human GLP-1R [4] = target: T3, human GLP-1R; experiment: GLP-1R HEK293 cell membrane [35S]GTPγS binding assay; type: biochemical; design: expressed in transfected cells; host or cells: HEK293 cells expressing human GLP-1R; membranes; conditions: HEK293 cell membranes expressing human GLP-1R, [35S]GTPγS binding; read-out: hGLP1R GTPgS Rel EC50 nM (SEM, n)
Method in brief: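 Agonist-driven Gαs activation read as [35S]GTPγS ([…]) binding to receptor-expressing HEK293 membranes, 30 min at room temperature, pH 7.4. Detection by anti-Gαs immunocapture on scintillation beads; EC50 derived from four-parameter logistic concentration-response fit.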

human Gcg receptor = target: T4, human Gcg receptor (Homo sapiens, UniProt P47871); experiment: [125I]-Glucagon binding (SPA), human Gcg receptor; conditions: read-out: hGLcgR Ki, nM (SEM, n)
T4 construct: expressed in transfected cells; crude membranes
Method in brief: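 Scintillation counts are taken after membranes and WGA beads incubate and settle for 12 hours at room temperature. Buffer is 25 mM HEPES, pH 7.4, with CaCl2, MgCl2, bacitracin and Tween-20. Ki values, from four-parameter IC50 fits, are geometric means over independent days.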

human GLP-1R [5] = target: T3, human GLP-1R; experiment: GLP-1R CHO cell β-arrestin recruitment assay; type: cell-based; design: host or cells: CHO-K1 PathHunter cells, assay-ready frozen; conditions: for EC50: CHO-K1 cells, PathHunter β-arrestin-2 recruitment, 0.1% casein, read-out: hGLP1R B-Arrestin2 Rel EC50 uM (SEM, n); for hGLP1R B-Arrestin2 % Top: normalized to GLP-1 maximum control
Method in brief: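 Peptide-induced β-arrestin-2 recruitment measured by enzyme-fragment complementation luminescence after 90 min at 37 °C plus 60 min detection at RT.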

T3 sequence (P43220 24-463): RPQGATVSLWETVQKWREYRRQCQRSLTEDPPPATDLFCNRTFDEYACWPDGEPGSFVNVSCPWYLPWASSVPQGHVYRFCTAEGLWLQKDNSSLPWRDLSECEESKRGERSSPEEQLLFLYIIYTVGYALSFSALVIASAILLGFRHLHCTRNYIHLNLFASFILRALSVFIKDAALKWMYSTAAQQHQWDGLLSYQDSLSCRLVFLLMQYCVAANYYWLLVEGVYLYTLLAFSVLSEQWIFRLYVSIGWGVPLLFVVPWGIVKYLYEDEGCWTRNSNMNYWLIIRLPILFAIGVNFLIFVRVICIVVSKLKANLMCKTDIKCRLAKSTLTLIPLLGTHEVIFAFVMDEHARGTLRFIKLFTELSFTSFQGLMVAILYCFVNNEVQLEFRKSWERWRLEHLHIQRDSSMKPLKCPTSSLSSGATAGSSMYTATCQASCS
Chain of human GLP-1 receptor (GLP-1R) (P43220 24-463): as above
T4 sequence (P47871 26-477): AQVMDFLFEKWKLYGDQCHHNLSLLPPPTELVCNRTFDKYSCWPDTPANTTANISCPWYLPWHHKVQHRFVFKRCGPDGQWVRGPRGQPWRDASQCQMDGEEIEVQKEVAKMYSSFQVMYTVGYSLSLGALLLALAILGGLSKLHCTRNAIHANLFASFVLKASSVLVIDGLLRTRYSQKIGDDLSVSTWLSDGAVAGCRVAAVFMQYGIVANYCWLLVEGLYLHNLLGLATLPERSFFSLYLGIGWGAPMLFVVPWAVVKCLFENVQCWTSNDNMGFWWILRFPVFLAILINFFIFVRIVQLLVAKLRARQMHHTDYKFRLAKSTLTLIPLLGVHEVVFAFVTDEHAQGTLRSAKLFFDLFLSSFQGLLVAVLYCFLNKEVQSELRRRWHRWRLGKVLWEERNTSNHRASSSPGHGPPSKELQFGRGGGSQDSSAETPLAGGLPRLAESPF

Compound `CC[C@H](C)[C@H](NC(=O)[C@H](CC(C)C)NC(=O)[C@H](Cc1ccc(O)cc1)NC(=O)[C@@H](CCC(=O)O)NC(=O)[C@@H](NC(=O)[C@H](Cc1ccccc1)NC(=O)[C@H](C)NC(=O)C(C)(C)NC(=O)[C@H](CCC(N)=O)NC(=O)[C@H](C)NC(=O)[C@H](CCCCNC(=O)COCCOCCNC(=O)COCCOCCNC(=O)CC[C@H](NC(=O)CCCCCCCCCCCCCCCCCCC(=O)O)C(=O)O)NC(=O)[C@H](CCC(=O)O)NC(=O)[C@H](CC(=O)O)NC(=O)[C@H](CC(C)C)NC(=O)[C@](C)(CC(C)C)NC(=O)[C@@H](NC(=O)[C@H](CO)NC(=O)[C@H](Cc1ccc(O)cc1)NC(=O)[C@H](CC(=O)O)NC(=O)[C@H](CO)NC(=O)[C@@H](NC(=O)[C@H](Cc1ccccc1)NC(=O)[C@@H](NC(=O)CNC(=O)[C@H](CCC(=O)O)NC(=O)C(C)(C)NC(=O)[C@@H](N)Cc1ccc(O)cc1)[C@@H](C)O)[C@@H](C)O)[C@@H](C)CC)[C@@H](C)CC)C(=O)N[C@@H](C)C(=O)NCC(=O)NCC(=O)N1CCC[C@H]1C(=O)N[C@@H](CO)C(=O)N[C@@H](CO)C(=O)NCC(=O)N[C@@H](C)C(=O)N1CCC[C@H]1C(=O)N1CCC[C@H]1C(=O)N1CCC[C@H]1C(=O)N[C@@H](CO)C(N)=O` [Example 343] (H-Y[Aib]EGTFTSDYSI[αMeL]LDEK([AEEA-AEEA-γGlu-C20 diacid])AQ[Aib]AFI[dE]YLIAGGPSSGAPPPS-NH2) has an EC50 [1] of 0.124 nM, a Ki (human GIP receptor) of 0.0374 nM and an EC50 [2] of 0.0422 nM. The Ki (human GLP-1R [3]) was 13.3 nM, the EC50 (human GLP-1R [4]) was 0.522 nM and the Ki (human Gcg receptor) was greater than 1070 nM. The EC50 (human GLP-1R [5]) was 0.0455 µM and the “hGLP1R B-Arrestin2 % Top” value (human GLP-1R [5]) was 41.4%.

`CC[C@H](C)[C@H](NC(=O)[C@H](CC(C)C)NC(=O)[C@H](Cc1ccc(O)cc1)NC(=O)[C@H](CCC(=O)O)NC(=O)[C@@H](NC(=O)[C@H](Cc1ccccc1)NC(=O)[C@H](CC(=O)O)NC(=O)C(C)(C)NC(=O)[C@H](CCC(N)=O)NC(=O)[C@H](C)NC(=O)[C@H](CCCCNC(=O)COCCOCCNC(=O)COCCOCCNC(=O)CC[C@H](NC(=O)CCCCCCCCCCCCCCCCCCC(=O)O)C(=O)O)NC(=O)[C@H](CCC(=O)O)NC(=O)[C@H](CC(=O)O)NC(=O)[C@H](CC(C)C)NC(=O)[C@](C)(CC(C)C)NC(=O)[C@@H](NC(=O)[C@H](CO)NC(=O)[C@H](Cc1ccc(O)cc1)NC(=O)[C@H](CC(=O)O)NC(=O)[C@H](CO)NC(=O)[C@@H](NC(=O)[C@H](Cc1ccccc1)NC(=O)[C@@H](NC(=O)CNC(=O)[C@H](CCC(=O)O)NC(=O)C(C)(C)NC(=O)[C@@H](N)Cc1ccc(O)cc1)[C@@H](C)O)[C@@H](C)O)[C@@H](C)CC)[C@@H](C)CC)C(=O)N[C@@H](C)C(=O)NCC(=O)NCC(=O)N1CCC[C@H]1C(=O)N[C@@H](CO)C(=O)N[C@@H](CO)C(=O)NCC(=O)N[C@@H](C)C(=O)N1CCC[C@H]1C(=O)N1CCC[C@H]1C(=O)N1CCC[C@H]1C(=O)N[C@@H](CO)C(N)=O` [Example 344] (H-Y[Aib]EGTFTSDYSI[αMeL]LDEK([AEEA-AEEA-γGlu-C20 diacid])AQ[Aib]DFIEYLIAGGPSSGAPPPS-NH2) showed an EC50 [1] of 0.044 nM, a Ki (human GIP receptor) of 0.0507 nM and an EC50 [2] of 0.0433 nM. It also gave a Ki (human GLP-1R [3]) of 14.8 nM, an EC50 (human GLP-1R [4]) of 0.423 nM and a Ki (human Gcg receptor) greater than 1080 nM. The EC50 (human GLP-1R [5]) was 0.0343 µM and the “hGLP1R B-Arrestin2 % Top” value (human GLP-1R [5]) was 46%.

In the case of `CC[C@H](C)[C@H](NC(=O)[C@H](CC(C)C)NC(=O)[C@H](Cc1ccc(O)cc1)NC(=O)[C@H](CCC(=O)O)NC(=O)[C@@H](NC(=O)[C@H](Cc1ccccc1)NC(=O)[C@H](C)NC(=O)C(C)(C)NC(=O)[C@H](CCC(N)=O)NC(=O)[C@H](C)NC(=O)[C@H](CCCCNC(=O)COCCOCCNC(=O)COCCOCCNC(=O)CC[C@H](NC(=O)CCCCCCCCCCCCCCCCCCC(=O)O)C(=O)O)NC(=O)[C@H](CCCN)NC(=O)[C@H](CC(=O)O)NC(=O)[C@H](CC(C)C)NC(=O)[C@](C)(CC(C)C)NC(=O)[C@@H](NC(=O)[C@H](CO)NC(=O)[C@H](Cc1ccc(O)cc1)NC(=O)[C@H](CC(=O)O)NC(=O)[C@H](CO)NC(=O)[C@@H](NC(=O)[C@H](Cc1ccccc1)NC(=O)[C@@H](NC(=O)CNC(=O)[C@H](CCC(=O)O)NC(=O)C(C)(C)NC(=O)[C@H](N)Cc1ccc(O)cc1)[C@@H](C)O)[C@@H](C)O)[C@@H](C)CC)[C@@H](C)CC)C(=O)N[C@@H](C)C(=O)NCC(=O)NCC(=O)N1CCC[C@H]1C(=O)N[C@@H](CO)C(=O)N[C@@H](CO)C(=O)NCC(=O)N[C@@H](C)C(=O)N1CCC[C@H]1C(=O)N1CCC[C@H]1C(=O)N1CCC[C@H]1C(=O)N[C@@H](CO)C(N)=O` [Example 346] (H-[dY][Aib]EGTFTSDYSI[αMeL]LD[Orn]K([AEEA-AEEA-γGlu-C20 diacid])AQ[Aib]AFIEYLIAGGPSSGAPPPS-NH2), the EC50 [1] is reported as 0.128 nM, the Ki (human GIP receptor) is reported as 0.0559 nM and the EC50 [2] is reported as 0.144 nM. For the same compound, the Ki (human GLP-1R [3]) was 1.67 nM, the EC50 (human GLP-1R [4]) was 0.737 nM and the Ki (human Gcg receptor) was 310 nM. The EC50 (human GLP-1R [5]) was 0.00325 µM and the “hGLP1R B-Arrestin2 % Top” value (human GLP-1R [5]) was 19.3%.

In the case of `CC[C@H](C)[C@H](NC(=O)[C@H](CC(C)C)NC(=O)[C@H](Cc1ccc(O)cc1)NC(=O)[C@H](CCC(=O)O)NC(=O)[C@@H](NC(=O)[C@H](Cc1ccccc1)NC(=O)[C@H](CCC(=O)O)NC(=O)C(C)(C)NC(=O)[C@H](CCC(N)=O)NC(=O)[C@H](C)NC(=O)[C@H](CCCCNC(=O)COCCOCCNC(=O)COCCOCCNC(=O)CC[C@H](NC(=O)CCCCCCCCCCCCCCCCCCC(=O)O)C(=O)O)NC(=O)[C@H](CCCN)NC(=O)[C@H](CC(=O)O)NC(=O)[C@H](CC(C)C)NC(=O)[C@](C)(CC(C)C)NC(=O)[C@@H](NC(=O)[C@H](CO)NC(=O)[C@H](Cc1ccc(O)cc1)NC(=O)[C@H](CC(=O)O)NC(=O)[C@H](CO)NC(=O)[C@@H](NC(=O)[C@H](Cc1ccccc1)NC(=O)[C@@H](NC(=O)CNC(=O)[C@H](CCC(=O)O)NC(=O)C(C)(C)NC(=O)[C@H](N)Cc1ccc(O)cc1)[C@@H](C)O)[C@@H](C)O)[C@@H](C)CC)[C@@H](C)CC)C(=O)N[C@@H](C)C(=O)NCC(=O)NCC(=O)N1CCC[C@H]1C(=O)N[C@@H](CO)C(=O)N[C@@H](CO)C(=O)NCC(=O)N[C@@H](C)C(=O)N1CCC[C@H]1C(=O)N1CCC[C@H]1C(=O)N1CCC[C@H]1C(=O)N[C@@H](CO)C(N)=O` [Example 349] (H-[dY][Aib]EGTFTSDYSI[αMeL]LD[Orn]K([AEEA-AEEA-γGlu-C20 diacid])AQ[Aib]EFIEYLIAGGPSSGAPPPS-NH2), the EC50 [1] is reported as 0.121 nM, the Ki (human GIP receptor) is reported as 0.08 nM and the EC50 [2] is reported as 0.117 nM. The Ki (human GLP-1R [3]) was 1.72 nM, the EC50 (human GLP-1R [4]) was 0.464 nM and the Ki (human Gcg receptor) was greater than 1060 nM. For the same compound, the EC50 (human GLP-1R [5]) was 0.0151 µM and the “hGLP1R B-Arrestin2 % Top” value (human GLP-1R [5]) was 18.4%.
